US11447493B2 (Kinnate Biopharma Inc., priority 2018, dated 2022)

Experiments:
Test in all cases: Radiometric protein kinase assay (33PanQinase), Assay Condition A (thiol containing)
Type in all cases: biochemical
CDK12 wt/CycK = CDK12 wt/CycK (Homo sapiens (Human), UniProt Q9NYV4); conditions: thiol containing (1.2 mM DTT), ATP 0.3 μM
Experimental: (§1) The IC50 profile of test compounds was determined using three protein kinases.
(§2) The compounds were provided as pre-weighed powders in vials. The compounds were dissolved to 1×10^−02M by adding DMSO. 100 μl of each of the resulting stock solutions were transferred into column 2 of four 96 well “master plates”.
(§3) Prior to testing, the 1×10^−02M stock solutions in column 2 of the master plates were subjected to a serial, semi-logarithmic dilution using 100% DMSO as a solvent. […] Column 1 and 7 were filled with 100% DMSO as controls. Subsequently, 2×10 μl from each well of the serial diluted copy plates were aliquoted with a 96 channel pipettor into two identical sets of “compound dilution plates”.
(§4) In the process, 90 μl H2O were added to each well of a set of compound dilution plates. To minimize potential precipitation, the H2O was added to each plate only a few minutes before the transfer of the compound solutions into the assay plates. Each plate was shaken thoroughly, resulting in a “compound dilution plate/10% DMSO”.
(§5) For the assays, 5 μl solution from each well of the compound dilution plates/10% DMSO were transferred into the assay plates. The final volume of the assay was 50 μl. All compounds were tested at 10 final assay concentrations in the range from 1×10^−04M to 3×10^−09M, in singlicate. The final DMSO concentration in the reaction cocktails was 1% in all cases.
(§6) All protein kinases were expressed in Sf9 insect cells or in E. coli as recombinant GST-fusion proteins or His-tagged proteins, either as full-length or enzymatically active fragments. All kinases were produced from human cDNAs and purified by either GSH-affinity chromatography or immobilized metal. Affinity tags were removed from a number of kinases during purification. The purity of the protein kinases was examined by SDS-PAGE/Coomassie staining, the identity was checked by mass spectroscopy.
(§7) A radiometric protein kinase assay (^33PanQinase® Activity Assay) was used for measuring the kinase activity of the three protein kinases. All kinase assays were performed in 96-well FlashPlates™ from PerkinElmer (Boston, Mass., USA) in a 50 μl reaction volume. The reaction cocktail was pipetted in four steps in the following order: • 20 μl of assay buffer (standard buffer) • 5 μl of ATP solution (in H2O) • 5 μl of test compound (in 10% DMSO) • 20 μl enzyme/substrate mix
(§8) The reaction cocktails were incubated at 30° C. for 60 minutes. The reaction was stopped with 50 μl of 2% (v/v) H3PO4, plates were aspirated and washed two times with 200 μl 0.9% (w/v) NaCl. Incorporation of ^33Pi was determined with a microplate scintillation counter (Microbeta, Wallac). All assays were performed with a BeckmanCoulter/SAGIAN™ Core System.
(§9) The median value of the counts in column 1 (n=8) of each assay plate was defined as “low control”. This value reflects unspecific binding of radioactivity to the plate in the absence of a protein kinase but in the presence of the substrate. The median value of the counts in column 7 of each assay plate (n=8) was taken as the “high control”, i.e. full activity in the absence of any inhibitor. The difference between high and low control was taken as 100% activity.
(§10) As part of the data evaluation the low control value from a particular plate was subtracted from the high control value as well as from all 80 “compound values” of the corresponding plate. The residual activity (in %) for each well of a particular plate was calculated by using the following formula: Res. Activity (%)=100×[(cpm of compound−low control)/(high control−low control)]
(§11) The residual activities for each concentration and the compound IC50 values were calculated using Quattro Workflow V3.1.1 (Quattro Research GmbH, Munich, Germany). […] The fitting method used was a least-squares fit.

CDK7/CycH/MAT1 = CDK7/CycH/MAT1 (Homo sapiens (Human), UniProt P50613); conditions: thiol containing (1.2 mM DTT), ATP 3.0 μM
Experimental: as §1, §2, §3, §4, §5, §6, §7, §8, §9, §10, §11

CDK2/CycA2 = CDK2/CycA2 (Homo sapiens (Human), UniProt P24941); conditions: thiol containing (1.2 mM DTT), ATP 0.3 μM
Experimental: as §1, §2, §3, §4, §5, §6, §7, §8, §9, §10, §11

Chain of CDK7/CycH/MAT1 (P50613 whole entry): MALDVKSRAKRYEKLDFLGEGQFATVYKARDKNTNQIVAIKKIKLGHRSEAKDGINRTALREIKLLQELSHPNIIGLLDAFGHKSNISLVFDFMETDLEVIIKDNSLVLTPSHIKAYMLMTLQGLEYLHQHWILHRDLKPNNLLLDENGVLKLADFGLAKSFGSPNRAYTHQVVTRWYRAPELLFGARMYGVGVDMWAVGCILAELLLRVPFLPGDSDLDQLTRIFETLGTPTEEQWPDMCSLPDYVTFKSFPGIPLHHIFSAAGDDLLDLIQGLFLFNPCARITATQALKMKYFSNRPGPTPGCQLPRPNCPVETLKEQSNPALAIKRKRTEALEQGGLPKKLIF
Chain of CDK7/CycH/MAT1 (P51946 whole entry partner): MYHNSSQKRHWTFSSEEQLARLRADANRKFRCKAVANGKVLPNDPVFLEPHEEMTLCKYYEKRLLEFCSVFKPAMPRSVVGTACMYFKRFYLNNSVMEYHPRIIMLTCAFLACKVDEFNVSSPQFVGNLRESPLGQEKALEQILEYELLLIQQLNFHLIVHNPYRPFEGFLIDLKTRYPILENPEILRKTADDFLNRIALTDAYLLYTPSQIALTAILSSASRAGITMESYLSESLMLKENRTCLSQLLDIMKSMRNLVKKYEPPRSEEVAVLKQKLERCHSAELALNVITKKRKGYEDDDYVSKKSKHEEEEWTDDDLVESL
Chain of CDK7/CycH/MAT1 (P51948 whole entry partner): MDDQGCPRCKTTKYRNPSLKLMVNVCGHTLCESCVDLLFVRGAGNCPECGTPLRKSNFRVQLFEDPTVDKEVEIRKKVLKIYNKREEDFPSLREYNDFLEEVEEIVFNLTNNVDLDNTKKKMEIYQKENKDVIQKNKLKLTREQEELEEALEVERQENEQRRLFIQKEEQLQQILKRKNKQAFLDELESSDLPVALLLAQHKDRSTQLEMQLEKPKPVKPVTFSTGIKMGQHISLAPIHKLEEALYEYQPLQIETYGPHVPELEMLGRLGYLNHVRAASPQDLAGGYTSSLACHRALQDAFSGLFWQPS
Chain of CDK12 wt/CycK (Q9NYV4 whole entry): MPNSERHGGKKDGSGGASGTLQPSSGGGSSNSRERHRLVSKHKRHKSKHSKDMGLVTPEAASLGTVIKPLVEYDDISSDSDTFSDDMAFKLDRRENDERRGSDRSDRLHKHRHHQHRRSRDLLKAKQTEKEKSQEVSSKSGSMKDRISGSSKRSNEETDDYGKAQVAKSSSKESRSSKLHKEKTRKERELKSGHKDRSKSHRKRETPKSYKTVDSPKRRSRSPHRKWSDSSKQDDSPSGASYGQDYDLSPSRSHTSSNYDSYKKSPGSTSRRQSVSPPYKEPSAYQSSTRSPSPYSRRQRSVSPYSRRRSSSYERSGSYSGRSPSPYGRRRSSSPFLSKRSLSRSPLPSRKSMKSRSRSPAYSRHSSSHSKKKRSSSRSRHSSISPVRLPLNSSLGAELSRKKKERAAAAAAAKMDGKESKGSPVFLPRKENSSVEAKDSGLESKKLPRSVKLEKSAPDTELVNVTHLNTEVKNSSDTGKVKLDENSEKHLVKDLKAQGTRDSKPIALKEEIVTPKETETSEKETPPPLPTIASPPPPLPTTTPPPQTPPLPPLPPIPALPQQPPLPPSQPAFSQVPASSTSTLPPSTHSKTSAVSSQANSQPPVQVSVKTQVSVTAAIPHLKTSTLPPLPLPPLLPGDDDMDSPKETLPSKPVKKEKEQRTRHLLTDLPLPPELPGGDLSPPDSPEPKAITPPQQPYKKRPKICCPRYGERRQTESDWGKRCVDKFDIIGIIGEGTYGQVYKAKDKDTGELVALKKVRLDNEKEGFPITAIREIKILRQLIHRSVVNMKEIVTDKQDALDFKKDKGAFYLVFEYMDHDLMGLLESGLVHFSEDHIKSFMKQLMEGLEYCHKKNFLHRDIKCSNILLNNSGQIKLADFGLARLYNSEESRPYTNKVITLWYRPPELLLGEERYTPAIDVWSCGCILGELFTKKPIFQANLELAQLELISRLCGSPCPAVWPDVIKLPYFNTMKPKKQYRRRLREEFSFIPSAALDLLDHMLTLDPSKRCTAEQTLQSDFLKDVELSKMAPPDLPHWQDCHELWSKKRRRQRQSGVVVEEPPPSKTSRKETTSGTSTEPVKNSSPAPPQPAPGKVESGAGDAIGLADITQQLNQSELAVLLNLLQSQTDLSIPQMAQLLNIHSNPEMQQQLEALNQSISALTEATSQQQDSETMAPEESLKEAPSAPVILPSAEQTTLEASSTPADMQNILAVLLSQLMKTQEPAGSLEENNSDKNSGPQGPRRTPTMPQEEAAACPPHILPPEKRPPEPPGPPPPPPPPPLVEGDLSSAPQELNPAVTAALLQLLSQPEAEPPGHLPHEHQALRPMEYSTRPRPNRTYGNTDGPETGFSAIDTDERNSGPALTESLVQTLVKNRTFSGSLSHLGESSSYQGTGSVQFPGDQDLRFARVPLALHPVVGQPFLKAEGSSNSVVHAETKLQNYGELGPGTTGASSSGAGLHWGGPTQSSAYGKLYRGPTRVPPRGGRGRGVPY
Chain of CDK12 wt/CycK (O75909 whole entry partner): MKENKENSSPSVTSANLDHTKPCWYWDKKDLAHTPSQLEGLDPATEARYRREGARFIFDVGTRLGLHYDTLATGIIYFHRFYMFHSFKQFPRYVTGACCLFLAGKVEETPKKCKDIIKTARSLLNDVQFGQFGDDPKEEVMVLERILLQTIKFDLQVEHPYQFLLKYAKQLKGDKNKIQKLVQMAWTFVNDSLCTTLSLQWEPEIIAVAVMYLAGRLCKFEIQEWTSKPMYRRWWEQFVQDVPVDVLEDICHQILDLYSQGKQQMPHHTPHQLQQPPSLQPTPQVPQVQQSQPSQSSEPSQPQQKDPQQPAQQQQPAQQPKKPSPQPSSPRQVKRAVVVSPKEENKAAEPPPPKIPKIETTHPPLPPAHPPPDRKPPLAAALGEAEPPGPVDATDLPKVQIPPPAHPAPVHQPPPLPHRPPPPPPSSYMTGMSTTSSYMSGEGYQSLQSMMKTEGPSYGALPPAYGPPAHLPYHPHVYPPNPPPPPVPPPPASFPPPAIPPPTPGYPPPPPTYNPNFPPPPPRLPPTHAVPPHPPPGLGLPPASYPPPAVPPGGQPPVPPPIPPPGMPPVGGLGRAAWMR

| Compound | IC50 (CDK12 wt/CycK) [µM] | IC50 (CDK7/CycH/MAT1) [µM] | IC50 (CDK2/CycA2) [µM] |
| --- | --- | --- | --- |
| C=CC(=O)Nc1ccc(C(=O)N2CCC[C@@H](Nc3ncc4ccccc4n3)C2)cc1 [Example 1, (R)-N-(4-(3-(quinazolin-2-ylamino)piperidine-1-carbonyl)phenyl)acrylamide] | 1 to 10 | – | – |
| C=CC(=O)Nc1ccc(C(=O)N2CCC[C@@H](Nc3cc4ccccc4cn3)C2)cc1 [Example 2, (R)-N-(4-(3-(isoquinolin-3-ylamino)piperidine-1-carbonyl)phenyl)acrylamide] | 1 to 10 | 30 to 100 | 30 to 100 |
| C=CC(=O)Nc1ccc(C(=O)N2CCC[C@@H](Nc3ncc4cc(Cl)ccc4n3)C2)cc1 [Example 3, (R)-N-(4-(3-((6-chloroquinazolin-2-yl)amino)piperidine-1-carbonyl)phenyl)acrylamide] | 1 to 10 | 30 to 100 | 30 to 100 |
| C=CC(=O)Nc1ccc(C(=O)N2CCC[C@@H](Nc3ncc4cc(F)ccc4n3)C2)cc1 [Example 4, (R)-N-(4-(3-((6-fluoroquinazolin-2-yl)amino)piperidine-1-carbonyl)phenyl)acrylamide] | 1 to 10 | 30 to 100 | 30 to 100 |
| C=CC(=O)Nc1ccc(C(=O)N2CCC[C@@H](Nc3ncc4ccc(F)cc4n3)C2)cc1 [Example 5, (R)-N-(4-(3-((7-fluoroquinazolin-2-yl)amino)piperidine-1-carbonyl)phenyl)acrylamide] | 1 to 10 | 30 to 100 | 30 to 100 |
| C=CC(=O)Nc1ccc(C(=O)N2CCC[C@@H](Nc3ncc4ccc(OC)cc4n3)C2)cc1 [Example 6, (R)-N-(4-(3-((7-methoxyquinazolin-2-yl)amino)piperidine-1-carbonyl)phenyl)acrylamide] | 10 to 30 | 30 to 100 | 30 to 100 |
| C=CC(=O)Nc1ccc(C(=O)N2CCC[C@@H](Nc3ncc4cc(OC)ccc4n3)C2)cc1 [Example 7, (R)-N-(4-(3-((6-methoxyquinazolin-2-yl)amino)piperidine-1-carbonyl)phenyl)acrylamide] | 30 to 100 | 30 to 100 | 30 to 100 |
| C=CC(=O)Nc1ccc(C(=O)N2CCC[C@@H](Nc3ncc4cc(C)ccc4n3)C2)cc1 [Example 8, (R)-N-(4-(3-((6-methylquinazolin-2-yl)amino)piperidine-1-carbonyl)phenyl)acrylamide] | 10 to 30 | 30 to 100 | 30 to 100 |
| C=CC(=O)Nc1ccc(C(=O)N2CCC[C@@H](Nc3ncc4ccc(C)cc4n3)C2)cc1 [Example 9, (R)-N-(4-(3-((7-methylquinazolin-2-yl)amino)piperidine-1-carbonyl)phenyl)acrylamide] | 10 to 30 | 30 to 100 | 30 to 100 |
| C=CC(=O)Nc1ccc(C(=O)N2CCC[C@@H](Nc3ncc4ccc(Cl)cc4n3)C2)cc1 [Example 10, (R)-N-(4-(3-((7-chloroquinazolin-2-yl)amino)piperidine-1-carbonyl)phenyl)acrylamide] | 1 to 10 | 30 to 100 | 30 to 100 |
| C=CC(=O)Nc1ccc(C(=O)N2CCC[C@@H](Nc3ncc4ccc(S(C)(=O)=O)cc4n3)C2)cc1 [Example 11, (R)-N-(4-(3-((7-(methylsulfonyl)quinazolin-2-yl)amino)piperidine-1-carbonyl)phenyl)acrylamide] | 1 to 10 | 30 to 100 | 10 to 30 |
| C=CC(=O)Nc1ccc(C(=O)N2CCC[C@@H](Nc3ncc4ccc(C(N)=O)cc4n3)C2)cc1 [Example 13, (R)-2-((1-(4-acrylamidobenzoyl)piperidin-3-yl)amino)quinazoline-7-carboxamide] | 0.1 to 1 | 10 to 30 | 1 to 10 |
| C=CC(=O)Nc1ccc(C(=O)N2CCC[C@@H](Nc3ncc4ccc(C(=O)O)cc4n3)C2)cc1 [Example 14, (R)-2-((1-(4-acrylamidobenzoyl)piperidin-3-yl)amino)quinazoline-7-carboxylic acid] | 0.1 to 1 | 10 to 30 | 1 to 10 |
| C=CC(=O)Nc1ccc(C(=O)N2CCC[C@@H](Nc3ncc4ccc(=O)n(C(C)C)c4n3)C2)cc1 [Example 15, (R)-N-(4-(3-((8-isopropyl-7-oxo-7,8-dihydropyrido[2,3-d]pyrimidin-2-yl)amino)piperidine-1-carbonyl)phenyl)acrylamide] | 1 to 10 | 30 to 100 | 10 to 30 |
| C=CC(=O)Nc1ccc(C(=O)N2CCC[C@@H](Nc3ncc4ccc(=O)[nH]c4n3)C2)cc1 [Example 16, (R)-N-(4-(3-((7-oxo-7,8-dihydropyrido[2,3-d]pyrimidin-2-yl)amino)piperidine-1-carbonyl)phenyl)acrylamide] | 10 to 30 | 30 to 100 | 30 to 100 |
| CCC(=O)Nc1ccc(C(=O)N2CCC[C@@H](Nc3ncc4ccccc4n3)C2)cc1 [Example 17, (R)-N-(4-(3-(quinazolin-2-ylamino)piperidine-1-carbonyl)phenyl)propionamide] | 30 to 100 | 30 to 100 | 30 to 100 |
| CCC(=O)Nc1ccc(C(=O)N2CCC[C@@H](Nc3cc4ccccc4cn3)C2)cc1 [Example 18, (R)-N-(4-(3-(isoquinolin-3-ylamino)piperidine-1-carbonyl)phenyl)propionamide] | 10 to 30 | 30 to 100 | 30 to 100 |
| CCC(=O)Nc1ccc(C(=O)N2CCC[C@@H](Nc3ncc4cc(Cl)ccc4n3)C2)cc1 [Example 19, (R)-N-(4-(3-((6-chloroquinazolin-2-yl)amino)piperidine-1-carbonyl)phenyl)propionamide] | 30 to 100 | 30 to 100 | 30 to 100 |
| C=CC(=O)Nc1ccc(C(=O)N2CC[C@@H](Nc3ncc4ccc(C(=O)NC)cc4n3)C2)cc1 [Example 58, (R)-2-((1-(4-acrylamidobenzoyl)pyrrolidin-3-yl)amino)-N-methylquinazoline-7-carboxamide] | – | 0.1 to 1 | – |
| C=CC(=O)Nc1ccc(C(=O)N2CC[C@@H](Nc3ncc4ccccc4n3)C2)cn1 [Example 67, (R)—N-(5-(3-(quinazolin-2-ylamino)pyrrolidine-1-carbonyl)pyridin-2-yl)acrylamide] | – | 0.1 to 1 | – |
| C=CC(=O)Nc1ccc(C(=O)N2CC[C@@H](Nc3ncc4cc(F)ccc4n3)C2)cc1F [Example 69, (R)—N-(2-fluoro-4-(3-((6-fluoroquinazolin-2-yl)amino)pyrrolidine-1-carbonyl)phenyl)acrylamide] | ≤ 0.1 | – | 1 to 10 |
| C#CC(=O)Nc1ccc(C(=O)N2CC[C@@H](Nc3ncc4ccccc4n3)C2)cc1 [Example 70, (R)—N-(4-(3-(quinazolin-2-ylamino)pyrrolidine-1-carbonyl)phenyl)propiolamide] | ≤ 0.1 | – | 0.1 to 1 |
| C=CC(=O)Nc1ccc(C(=O)N2CC[C@@H](Nc3ncc4ccccc4n3)C2)cc1OC [Example 71, (R)—N-(2-methoxy-4-(3-(quinazolin-2-ylamino)pyrrolidine-1-carbonyl)phenyl)acrylamide] | ≤ 0.1 | – | – |
| C=CC(=O)Nc1ccc(C(=O)N2CC[C@@H](Nc3ncc4ccccc4n3)C2)c(OC)c1 [Example 73, (R)—N-(3-methoxy-4-(3-(quinazolin-2-ylamino)pyrrolidine-1-carbonyl)phenyl)acrylamide] | 0.1 to 1 | – | – |
| C=CC(=O)N1CCCc2cc(C(=O)N3CC[C@@H](Nc4ncc5ccccc5n4)C3)ccc21 [Example 79, (R)-1-(6-(3-(quinazolin-2-ylamino)pyrrolidine-1-carbonyl)-3,4-dihydroquinolin-1(2H)-yl)prop-2-en-1-one] | ≤ 0.1 | – | 1 to 10 |
